From patent US20040152640A1, “Preparation for the prevention and or treatment of altered bone metabolism” (priority 2001, published 2004)

System: mouse bone marrow cells
Assay: Alkaline phosphatase (ALP) activity assay in mouse bone marrow cells (marker for osteoblast differentiation)
Type: cell-based
Design: dose or concentration left out as unconfirmed
Settings: mice bone marrow cells, 3 weeks exposure; with ascorbic acid and β-glycerolphosphate; stimulation more pronounced than genistein
Description: Bone marrow cells were isolated from six months old female NMRI mice. After washing, the cells were diluted in phenol red free α-MEM (1% p/s, 15% charcoal treated FCS) and seeded in 24-well plates (1.25*10^6 cells/well). After 24 hours incubation (37° C., 5% CO2) the cells were exposed to the active components (1*10^−5, 1*10^−6 and 1*10^−7 M) together with ascorbic acid (50 μg/ml) and β-glycerolphosphate (1 mM). Exposure media were refreshed every 3 days. After 2 and 3 weeks of incubation, cells were washed with PBS and stored at −20° C. After lysis DNA amounts and alkaline phosphatase activities were determined as described below. The DNA amounts are measured to determine to the number of cells and the alkaline phosphatase activity is used as a marker for osteoblast differentiation. 300 μl lysis buffer (1×SSC/0.01% SDS) was added to the frozen cells. After 1 hour incubation (37° C.) the plates were sonified for 10 minutes and cell suspensions were used for ALP activity measurements. 25 μl cell lysate was transferred in duplicate to 96-well plates. 25 μl of 1*SSC/0.01% SDS served as a negative control. […] ALP activity was measured at a wavelength of 405 nm at room temperature during 10 minutes at 30-second intervals. […] Activity is expressed as nmol p-nitrophenol production/minute/well. (Mean±sem, 2 independent experiments measured in duplicate)

Compound | alkaline phosphatase signal in differentiated osteoblasts
O=c1cc(-c2ccc(O)c(O)c2)oc2cc(O)cc(O)c12 [luteolin] | increased alkaline phosphatase signal
O=c1cc(-c2ccc(O)cc2)oc2cc(O)cc(O)c12 [apigenin] | increased alkaline phosphatase signal
